Consider 15 molecules from PubChem BioAssay (NCI).

Holding throughout (experiment): NCI-60 cell line screen, 48 h
In assay [1] the test system is MDA-MB-435.
The test system of assay [2] is HOP-62 NSCLC.
Assay [3] deals with SF-295 CNS.
Assay [4] has as its system T-47D breast.
For assay [5], the system named is NCI/ADR-RES ovarian.
For assay [6], the system named is SNB-19 CNS.
Assay [7] deals with BT-549 breast.
In assay [8] the test system is SK-OV-3 ovarian.
Assay [9] deals with ACHN renal.
In assay [10] the test system is KM12 colon.
For assay [11], the system named is SK-MEL-28 melanoma.
For assay [12], the system named is 786-0 renal.
In assay [13] the test system is MALME-3M melanoma.
Assay [14] concerns NCI-H522 lung.
Assay [15] deals with SNB-75 CNS.
In assay [16] the test system is HT29 colon.
Assay [17] deals with RPMI-8226 leukemia.
Assay [18] concerns HCC-2998 colon.

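Cells were grown in 96-well plates and exposed to each compound for 48 hours at five concentrations; endpoints were interpolated linearly between bracketing concentrations, or set to the highest concentration if not reached. TGI: concentration producing complete growth inhibition.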 A value given as a limit tells only on which side of the number the result lay.

For the molecule `O=C1c2c(Br)sc(Br)c2[C@@H](Cl)[C@H]1Cl`, the TGI in [1] is 43.8 µM; in assay [2] it was 35.5 µM; in assay [3], 40.7 µM; in assay [4], 44.8 µM; in [5], greater than 100 µM; in [6] it was 38.5 µM. Moreover, the TGI came to 39.3 µM in assay [7]; 36.3 µM in assay [8]; 37.4 µM in [9]; 65.4 µM in [10]; 59.3 µM in assay [11]; 52.5 µM in assay [12]. In addition, the TGI is 82.7 µM in assay [13]; 10.9 µM in assay [14]; 34.1 µM in assay [15]; greater than 100 µM in assay [16]; 54.6 µM in assay [17].

Turning to `COc1ccc(C2C(C#N)=C(S)N(C3OC(COC(C)=O)C(OC(C)=O)C(OC(C)=O)C3OC(C)=O)C(C)=C2C(C)=O)cc1` (configuration not stated), the TGI in [1] was greater than 100 µM; in assay [2] it was greater than 100 µM; in [3] it was greater than 100 µM; in assay [4] it was 83.1 µM; in assay [5], greater than 100 µM; in assay [6], greater than 100 µM. For the same molecule, the TGI in assay [7], in assay [8], in [9], in [10], in assay [11] and in assay [18] was greater than 100 µM in each case. The TGI in assay [12], in [13], in assay [15], in [16] and in [17] was greater than 100 µM throughout.

Regarding `COC1=N[C@H](C(C)C)C(OC)=N[C@H]1Cc1ccc(C[C@@H]2N=C(OC)[C@@H](C(C)C)N=C2OC)s1`, the TGI in assay [1] was greater than 100 µM; in assay [2], greater than 100 µM; in assay [3] it was greater than 100 µM; in assay [4] it was 38.9 µM; in [5], greater than 100 µM; in assay [6], greater than 100 µM. Further, the TGI in assay [7], in assay [8], in assay [9], in assay [10], in assay [11] and in assay [18] was greater than 100 µM in each case. Besides, the TGI was greater than 100 µM in [12]; greater than 100 µM in assay [13]; 63.2 µM in assay [14]; greater than 100 µM in [15]; 96.3 µM in assay [16].

For `N#Cc1c(C#N)c(-c2ccccc2)n(Cc2ccccc2)c1N`, the TGI in assay [1], in [2], in [3], in assay [4], in assay [5] and in assay [6] was greater than 100 µM each time. The TGI in assay [7], in [8], in assay [9], in assay [10], in assay [18] and in assay [12] was greater than 100 µM throughout. For the same molecule, the TGI in assay [13] is greater than 100 µM; in [14] it was greater than 100 µM; in assay [15], 64.7 µM; in assay [16], greater than 100 µM; in assay [17], greater than 100 µM.

In the case of `Cc1c(O)c(OC2OC(CO)C(O)C(O)C2O)cc2c1CC[C@@H]1C2(C)C(=O)C[C@]2(C)[C@@H]([C@@](C)(O)C3CCC(C)(C)O3)[C@H](O)C[C@@]12C` (some centres not stated), the TGI in [1], in assay [2], in [3], in assay [4], in [5] and in assay [6] was greater than 100 µM each time. In addition, the TGI in [7], in [8], in assay [9], in assay [10], in [11] and in assay [18] was greater than 100 µM in each case. For the same molecule, the TGI in assay [12], in assay [13], in [14], in [15] and in assay [16] was greater than 100 µM in each case.

As for `Cn1c(=O)c2sc3c4sc5c(=O)n(C)c6ccccc6c5c4sc3c2c2ccccc21`, the TGI in assay [1], in [2], in [4], in assay [5], in assay [6] and in [7] was greater than 100 µM throughout. The TGI in assay [8], in [9], in assay [10], in assay [11], in [18] and in assay [12] was greater than 100 µM throughout. Also, the TGI in assay [13], in assay [14], in assay [15], in assay [16] and in assay [17] was greater than 100 µM each time.

Take `CN(C)C1(N(C)C)Oc2c(c(=O)n(C)c(=O)n2C)C(c2ccc(C(F)(F)F)cc2)C1(F)F` (configuration not stated): the TGI in [1], in assay [2], in assay [3], in assay [4], in [5] and in assay [6] was greater than 100 µM each time. Besides, the TGI in assay [7], in assay [8], in assay [9], in assay [10], in assay [11] and in assay [18] was greater than 100 µM in each case. The TGI in assay [12], in [15] and in [17] was greater than 100 µM each time.

As for `C=C1[C@H]2O[C@H]2[C@@H](OC(C)=O)[C@@]2(C)[C@@H](OC(C)=O)C[C@@H](OC(=O)CCC)[C@@](C)(O)[C@@H]2[C@@H](OC(C)=O)[C@]2(O)[C@@H](C)C(=O)O[C@H]2[C@H]1Cl`, the TGI in assay [1], in [2], in [3], in [4], in assay [5] and in assay [6] was greater than 100 µM each time. In addition, the TGI in assay [7], in assay [9], in assay [10], in [11], in assay [18] and in [12] was greater than 100 µM throughout. Also, the TGI in assay [13], in [14], in [15], in assay [16] and in assay [17] was greater than 100 µM each time.

Regarding `CC(=O)NC1C(OC(C)C(=O)NC(C(=O)NC(CCC(=O)NCCCNC2c3ccccc3Nc3cccc([N+](=O)[O-])c32)C(N)=O)C(C)C)C(O)C(CO)OC1(C)OCc1ccccc1` (configuration not stated), the TGI in assay [1] was found to be 2.77 µM; in assay [2], 5.87 µM; in [3] it was 3.23 µM; in assay [4], 4.16 µM; in [5], 4.76 µM; in [6], 3.67 µM. The TGI was found to be 4.1 µM in assay [7]; 3.33 µM in assay [8]; 2.19 µM in assay [9]; 3.48 µM in [10]; 2.2 µM in [18]; 2.35 µM in assay [12]. In addition, the TGI in [13] came out at 2.69 µM; in assay [14] it was 2.37 µM; in [15], 4.34 µM; in assay [16], 0.417 µM; in assay [17], 1.01 µM.

For `C[C@@H](CC(=O)O)OC1OC(COC(=O)C(C)(C)C)C(OC(=O)C(C)(C)C)C(OC(=O)C(C)(C)C)C1OC(=O)C(C)(C)C` (some centres not stated), the TGI in assay [1] is greater than 100 µM; in assay [2], greater than 100 µM; in [3], greater than 100 µM; in [4] it was greater than 100 µM; in assay [5], greater than 100 µM; in assay [6], 98.2 µM. Besides, the TGI is greater than 100 µM in assay [7]; greater than 100 µM in assay [8]; 64.4 µM in assay [9]; greater than 100 µM in assay [10]; greater than 100 µM in assay [11]; greater than 100 µM in assay [18]. Moreover, the TGI in assay [12] was greater than 100 µM; in assay [14], greater than 100 µM; in assay [15], greater than 100 µM; in assay [16], greater than 100 µM; in [17] it was 71.8 µM.

For the molecule `CCC(=O)NI1OC(=O)c2ccccc21`, the TGI in assay [1], in assay [2], in assay [3], in assay [4], in assay [5] and in [7] was greater than 100 µM each time. For the same molecule, the TGI in assay [8], in assay [9], in assay [10], in assay [11], in [18] and in assay [12] was greater than 100 µM throughout. Also, the TGI in assay [14] is 48.8 µM; in assay [15], greater than 100 µM; in assay [16], greater than 100 µM; in assay [17] it was greater than 100 µM.

For the molecule `COc1cc2c(cc1OC)C1c3ccccc3CCN1CCC2` (configuration not stated), the TGI in [1], in [2], in [3], in [4], in assay [5] and in assay [6] was greater than 100 µM in each case. Further, the TGI in assay [7] was 81.4 µM; in [8], greater than 100 µM; in assay [9], greater than 100 µM; in [10], greater than 100 µM; in [11], greater than 100 µM; in assay [18] it was greater than 100 µM. Also, the TGI in assay [12], in assay [13], in assay [15], in assay [16] and in assay [17] was greater than 100 µM in each case.

As to `COC(=O)[C@H](Cc1ccccc1)NC(=O)N(CCC#N)CCCCN(CCC#N)C(=O)N[C@@H](Cc1ccccc1)C(=O)OC`, the TGI in [1], in assay [2], in assay [3], in [4], in assay [5] and in [6] was greater than 100 µM in each case. The TGI in assay [7], in assay [8], in [9], in assay [10], in assay [11] and in assay [18] was greater than 100 µM in each case. For the same molecule, the TGI in assay [12] was greater than 100 µM; in assay [13], greater than 100 µM; in [14] it was greater than 100 µM; in assay [15], greater than 79.1 µM; in [17], greater than 100 µM.

As to `CCOC(=O)c1nc2ccccc2nc1NCc1ccc(OC)c(OC)c1`, the TGI in assay [1], in assay [2], in assay [3], in assay [4], in [5] and in [7] was greater than 100 µM each time. Moreover, the TGI in assay [8], in [9], in assay [10], in [11], in assay [18] and in [12] was greater than 100 µM each time. Also, the TGI in assay [13], in [14], in assay [15], in [16] and in assay [17] was greater than 100 µM in each case.

On to `N#CCCN(CCC#N)c1ccc(C(N=Nc2ccc(Cl)cc2)=Nc2ccccc2)cc1`, for which the TGI in assay [1] amounted to 27.5 µM; in assay [2], 28.2 µM; in assay [3], 12 µM; in assay [4], 27.2 µM; in [5] it was 24.2 µM; in [6], 25 µM. Also, the TGI is 16.6 µM in assay [7]; 27.1 µM in assay [8]; 27.2 µM in [9]; 31.3 µM in assay [10]; 30 µM in assay [11]; 20.6 µM in [18]. The TGI was 28 µM in assay [12]; 30.4 µM in [14]; 31.8 µM in [15]; 34.3 µM in [16]; greater than 100 µM in assay [17].
